Drawing on US10995070B2, “Acetyl-CoA carboxylase modulators” (Monsanto Technology LLC, priority 2013, dated 2021), this text covers inhibition for two compounds.

Common to all, as to assay type: cell-based
One experiment relates to Phytophthora capsici. Description: Fungal growth inhibition assay, P. capsici. Particulars: 48 h. From the text:
(§1) Spores were isolated from previously sub-cultured plates of Botrytis cinerea, Phytophthora capsici, Fusarium moniliforme, Fusarium viguliforme, Collectotrichum graminicola, and Diplodia maydis. All spores were filtered and collected in a sterile glass bowl to isolate the spores from the mycelia. The isolation and sub-culture plate condition for each pathogen is described below.
Spore isolation for P. capsici: Three to five days prior to the assay a 2-3 week old V8 (17%)+CaCO3 (3 g/L)+20 g agar plate was removed from a dark 25° C. incubator and cut up into small chunks. One plate was separated into two deep well plates and rinsed with sterile distilled water three times. The cut up pieces were incubated under light in a sterile filter hood with 25 ml of sterile distilled water. On the day of the assay the water was removed and 5-7 ml of fresh sterile distilled water was added. One plate was incubated at 4° C. for 45-60 minutes and then placed at room temperature for about 45-60 minutes. The spores were collected in a sterile filter bowl containing a fluted piece of filter paper. The spores were vortexed in a conical tube for 30-60 seconds to remove the flagella of the zoospores after isolation.
(§2) After spore isolation, pathogen spores were counted on a hemocytometer to calculate the spores/ml. In 17% V8 liquid media containing 3 g/L CaCO3, isolated spores were diluted to individual concentrations based on the growth curves at 48 hours of each pathogen. The spore concentrations for each pathogen were as follows: B. cinerea—10,000 sp/ml; P. capsici—300 sp/ml; F. monliforme—500 sp/ml; F. virguliforme—500 sp/ml; C. graminicola—3,000 sp/ml; and D. maydis—3,000 sp/ml.
(§3) Chemistry stocks were dissolved in DMSO at 2.5 mg/ml. Chemistry was diluted in a 96-well stock plate in five-fold dilutions to obtain a final concentration of 50, 10, and 2 ppm in vitro. The final concentration of the positive control after the five-fold dilutions was as follows: soraphen—0.5, 0.1, and 0.02 ppm. Negative controls on each plate included 2% DMSO, water containing spores and media, and a blank for background subtraction.
(§4) In a 96-well plate the spore solution, chemistries, and controls were combined to make the final solution concentrations mentioned above. Upon addition of the chemistry, an OD600 reading was done to assess chemical precipitation. The 96-well plates were incubated in plastic tubs containing wet paper towels under the following conditions, 25° C. in the dark for P. capsici and B. cinerea or 26° C. with light/dark cycle for C. graminicola, D. maydis, F. virguliforme, F. monliforme. Plate readings were repeated at 24 and 48 hrs. Visual ratings were performed at 24 and 48 hrs to check for precipitation and confirm efficacy. Visual and OD600 ratings of the chemistry at 48 hours were compared to the 2% DMSO control to determine the percent of pathogen growth inhibition.

The subject of another experiment is Fusarium virguliforme. Description: Fungal growth inhibition assay, F. virguliforme. Particulars: 48 h. As to the method:
as §1
Spore isolation for F. virguliforme: A 2-3 week old PDA (pre-mix) plate containing cefotaxime (100 mg/L) and kanamycin (50 mg/L) was removed from 26° C. incubator with a light/dark 12 hour cycle and the mycelia were treated with 5-10 ml of filter sterilized distilled water. The mycelia were scraped to re-suspend the spores. The spores were then collected in a sterile filter bowl containing a fluted piece of filter paper and poured into a conical tube.
as §2, §3, §4

The test system of the next experiment is Saccharomyces cerevisiae. Briefly: Yeast growth inhibition assay. Particulars: read-out: S. cerevisiae % growth inhibition. The procedure:
Yeast cells (Ade2 strain) were grown in liquid YPD (1% yeast extract, 2% peptone, 2% dextrose) for 16 hours at 30° C. from previously sub-cultured plates of Saccharomyces cerevisiae. The OD600 of the overnight culture was checked via spectrophotometer and diluted to a concentration of 2×10^4 cells/ml.
Chemistry stocks were dissolved in DMSO to a concentration of 10 mM. Chemistry stocks were further diluted in a 96-well stock plate to obtain final concentrations of […] in 1% DMSO. The final concentrations of the soraphen positive control were 400, 40, and 3.2 nM. The negative controls on each plate included a background subtraction control containing yeast and 1% DMSO (without chemistry) and a second contamination control containing YPD (with no yeast) and 1% DMSO (without chemistry).
98 μl liquid YPD was added to 2 μl diluted stock of DMSO per well and mixed thoroughly. After mixing, 100 μl of the diluted yeast solution was added to bring the final yeast concentration to 1×10^4 cells/ml or 2000 cells per well. An initial spectrophotometric reading at OD600 was conducted on the entire plate and served as the 0 hours time point used to subtract any background. […] […] […] All experiments were conducted in triplicate. Averages were reported along with standard deviation calculation to generate error bars. Each plate contained its own controls and consisted of inoculated+DMSO, non-inoculated+DMSO, and a titration series of soraphen at 400, 40, and 3.2 nM.

A further experiment has as its system Diplodia maydis. Briefly: Fungal growth inhibition assay, D. maydis. Particulars: 48 h. As to the method: as §1
Spore isolation for D. maydis: A 3-4 week old PDA (pre-mix) plate was removed from 26° C. incubator with a light/dark 12 hour cycle and the mycelia were treated with 6-7 ml of sterile distilled water, scraped into a sterile petri dish, and smashed to open the pycnidia. The spores were then collected in a sterile filter bowl containing a fluted piece of filter paper and poured into a conical tube.
as §2, §3, §4

In the experiment on Phytophthora capsici, `O=C(O)Cc1ccc(-c2cc(-c3ccccc3)c3ccccc3n2)s1` [Formula Ib-iv, 2-(5-(4-phenylquinolin-2-yl)thiophen-2-yl)acetic acid] registered an inhibition at 2 ppm of 0%, an inhibition at 10 ppm of 11% and an inhibition at 50 ppm of 80%. In the experiment on Fusarium virguliforme, this compound registered an inhibition at 2 ppm of 4% and an inhibition at 10 ppm of 29%. Further, in the experiment on Saccharomyces cerevisiae, the inhibition at 3.7 µM stood at 0%, the inhibition at 11.1 µM stood at 0%, the inhibition at 33.3 µM came to 15% and the inhibition at 100 µM is 99%. In the experiment with Diplodia maydis, this compound showed an inhibition at 2 ppm of 8% and an inhibition at 10 ppm of 45%. In the experiment on Diplodia maydis (50 ppm), the inhibition at 50 ppm amounted to 89%.
For `O=C(O)Cc1ccc(-c2nc3ccccc3c(-c3ccccc3)c2Cl)s1` [Formula Ib-ii, 2-(5-(3-chloro-4-phenylquinolin-2-yl)thiophen-2-yl)acetic acid], in the experiment on Phytophthora capsici, the inhibition at 2 ppm came out at 18%, the inhibition at 10 ppm stood at 31% and the inhibition at 50 ppm worked out at 49%. In addition, in the experiment on Fusarium virguliforme, the inhibition at 2 ppm worked out at 31% and the inhibition at 10 ppm was 41%. Further, in the experiment with Saccharomyces cerevisiae, the inhibition at 3.7 µM came to 0%, the inhibition at 11.1 µM is 0%, the inhibition at 33.3 µM worked out at 55% and the inhibition at 100 µM was 79%. In the experiment with Diplodia maydis, this compound had an inhibition at 2 ppm of 55% and an inhibition at 10 ppm of 70%.

The term inhibition denotes the drop in the measured response relative to a control, in per cent.
